Like-named read-outs stand apart in the source and are kept apart here.
Columns and labels:
cloned human μ receptor = molecular target: T1, cloned human μ receptor (Homo sapiens, UniProt P35372); assay: μ receptor binding assay, displacement of 125I-FK33824
T1 construct: expressed in transfected cells; host or cells: human HEK-293S cells, neomycin resistance

human δ receptor = molecular target: T2, human δ receptor (Homo sapiens, UniProt P41143); assay: GTP[γ]35S binding functional assay, HEK-293S membranes; assay type: biochemical
T2 construct: expressed in transfected cells
T2 sequence (P41143 whole entry): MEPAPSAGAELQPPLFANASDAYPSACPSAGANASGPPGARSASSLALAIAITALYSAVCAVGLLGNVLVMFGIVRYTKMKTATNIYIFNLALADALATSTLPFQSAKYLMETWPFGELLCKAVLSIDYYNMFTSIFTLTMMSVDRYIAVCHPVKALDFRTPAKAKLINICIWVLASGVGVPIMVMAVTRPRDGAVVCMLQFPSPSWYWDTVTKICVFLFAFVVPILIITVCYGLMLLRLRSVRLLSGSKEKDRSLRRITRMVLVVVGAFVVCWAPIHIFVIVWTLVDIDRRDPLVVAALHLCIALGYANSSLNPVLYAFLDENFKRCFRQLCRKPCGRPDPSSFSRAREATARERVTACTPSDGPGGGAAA
Experimental: Human 293S cells expressing cloned human κ, δ and μ receptors and neomycin resistance are grown in suspension at 37° C. and 5% CO2 in shaker flasks containing calcium-free DMEM10% FBS, 5% BCS, 0.1% Pluronic F-68, and 600 μg/ml geneticin.
Cells are pelleted and resuspended in lysis buffer (50 mM Tris, pH 7.0, 2.5 mM EDTA, with PMSF added just prior to use to 0.1 mM from a 0.1 M stock in ethanol), incubated on ice for 15 min, then homogenized with a polytron for 30 sec. The suspension is spun at 1000 g (max) for 10 min at 4° C. The supernatant is saved on ice and the pellets resuspended and spun as before. The supernatants from both spins are combined and spun at 46,000 g (max) for 30 min. The pellets are resuspended in cold Tris buffer (50 mM Tris/Cl, pH 7.0) and spun again. The final pellets are resuspended in membrane buffer (50 mM Tris, 0.32 M sucrose, pH 7.0). Aliquots (1 ml) in polypropylene tubes are frozen in dry ice/ethanol and stored at −70° C. until use. The protein concentrations are determined by a modified Lowry assay with sodium dodecyl sulfate.
The agonist activity of the compounds is measured by determining the degree to which the compounds receptor complex activates the binding of GTP to G-proteins to which the receptors are coupled. In the GTP binding assay, GTP[γ]^35S is combined with test compounds and membranes from HEK-293S cells expressing the cloned human opioid receptors or from homogenised rat or mouse brain. Agonists stimulate GTP[γ]^35S binding in these membranes. The EC50 and Emax values of compounds are determined from dose-response curves. Right shifts of the dose response curve by the delta antagonist naltrindole are performed to verify that agonist activity is mediated through delta receptors. For human δ receptor functional assays, EC50 (low) is measured when the human δ receptors used in the assay were expressed at lower levels in comparison with those used in determining EC50 (high). The Emax values were determined in relation to the standard δ agonist SNC80, i.e., higher than 100% is a compound that have better efficacy than SNC80.
Rat brain membranes are thawed at 37° C., passed 3 times through a 25-gauge blunt-end needle and diluted in Mhe GTPγS binding (50 mM Hepes, 20 mM NaOH, 100 mM NaCl, 1 mM EDTA, 5 mM MgCl2, pH 7.4, Add fresh: 1 mM DTT, 0.1% BSA). 120 μM GDP final is added membranes dilutions. The EC50 and Emax of compounds are evaluated from 10-point dose-response curves done in 300 μl with the appropriate amount of membrane protein (20 μg/well) and 100000-130000 dpm of GTPγ^5S per well (0.11-0.14 nM). The basal and maximal stimulated binding are determined in absence and presence of 3 μM SNC-80. The assay performed on HEK 293s cells stably expressing cloned Delta receptors is done in a slightly different buffer (50 mM Hepes, 20 mM NaOH, 200 mM NaCl, 1 mM EDTA, 5 mM MgCl2, pH 7.4, Add fresh: 0.5% BSA, no DTT) and with a 3 μM final conc. of GDP.

cloned human δ receptor = molecular target: T3, cloned human δ receptor (Homo sapiens, UniProt P41143); assay: δ receptor binding assay, displacement of 125I-Deltorphin II
T3 construct: expressed in transfected cells
T3 sequence (P41143 whole entry): as above

cloned human κ receptor = cloned human κ receptor (Homo sapiens, UniProt P41145); assay: κ receptor binding assay, displacement of 125I-DPDYN; conditions: Table 1
Sequence of cloned human κ receptor (P41145 whole entry): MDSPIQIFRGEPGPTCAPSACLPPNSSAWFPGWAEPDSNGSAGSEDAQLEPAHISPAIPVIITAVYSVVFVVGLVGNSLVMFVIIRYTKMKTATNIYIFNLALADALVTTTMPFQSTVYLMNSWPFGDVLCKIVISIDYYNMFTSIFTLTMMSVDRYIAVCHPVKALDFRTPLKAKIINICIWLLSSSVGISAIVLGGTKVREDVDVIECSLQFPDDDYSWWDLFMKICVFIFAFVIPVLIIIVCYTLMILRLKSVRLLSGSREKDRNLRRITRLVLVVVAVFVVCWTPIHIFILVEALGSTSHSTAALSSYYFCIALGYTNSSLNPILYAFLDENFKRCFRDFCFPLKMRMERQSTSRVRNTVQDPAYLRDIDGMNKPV

[1] = Table 2, lower receptor expression, relative to SNC80, range over several compounds, read-out: Human δ % Emax (low)

T1 sequence (P35372 whole entry): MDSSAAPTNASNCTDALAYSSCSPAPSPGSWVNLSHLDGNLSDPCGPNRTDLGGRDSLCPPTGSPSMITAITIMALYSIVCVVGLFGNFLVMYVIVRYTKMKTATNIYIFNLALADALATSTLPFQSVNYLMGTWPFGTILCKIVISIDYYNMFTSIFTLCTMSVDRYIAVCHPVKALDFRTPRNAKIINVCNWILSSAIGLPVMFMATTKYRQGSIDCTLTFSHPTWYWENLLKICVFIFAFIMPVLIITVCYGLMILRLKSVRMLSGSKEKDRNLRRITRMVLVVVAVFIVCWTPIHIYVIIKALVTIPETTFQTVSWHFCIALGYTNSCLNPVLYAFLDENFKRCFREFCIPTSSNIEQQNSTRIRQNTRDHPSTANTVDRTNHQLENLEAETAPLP

Structure (SMILES) | IC50 (cloned human μ receptor) [nM] | EC50 (human δ receptor) [nM] | Emax (human δ receptor; [1]) [%] | IC50 (cloned human δ receptor) [nM] | Emax (human δ receptor; Table 1, higher receptor expression, relative to standard δ agonist SNC80, read-out: Human δ % EMax (high)) [%] | IC50 (cloned human κ receptor) [nM]
CCN(CC)C(=O)c1ccc(C(=C2CCN(Cc3cccs3)CC2)c2cccc(NC(=O)OC)c2)cc1 [Compound 1, [3-[[4-[(diethylamino)carbonyl]phenyl][1-(2-thienylmethyl)-4-piperidinylidene]methyl]phenyl]-carbamic acid, methyl ester] | 62.8 to 498 | 1.8 to 5.97 | 93.7 to 128 | 0.3 to 0.35 | – | –
CCN(CC)C(=O)c1ccc(C(=C2CCN(Cc3ccco3)CC2)c2cccc(NC(=O)OC)c2)cc1 [Compound 2, [3-[[4-[(diethylamino)carbonyl]phenyl][1-(2-furanylmethyl)-4-piperidinylidene]methyl]phenyl]-carbamic acid, methyl ester] | 62.8 to 498 | 1.8 to 5.97 | 93.7 to 128 | 0.3 to 0.35 | – | –
CCN(CC)C(=O)c1ccc(C(=C2CCN(Cc3ccccc3)CC2)c2cccc(NC(=O)OC)c2)cc1 [Compound 3, [3-[[4-[(diethylamino)carbonyl]phenyl][1-(phenylmethyl)-4-piperidinylidene]methyl]phenyl]-carbamic acid, methyl ester] | 28.7 | 0.62 | – | 0.48 | 91.7 | 188
CCN(CC)C(=O)c1ccc(C(=C2CCN(Cc3cncs3)CC2)c2cccc(NC(=O)OC)c2)cc1 [Compound 5, methyl 3-{{4-[(diethylamino)carbonyl]phenyl}[1-(1,3-thiazol-5-ylmethyl)piperidin-4-ylidene]methyl}phenylcarbamate] | 62.8 to 498 | 1.8 to 5.97 | 93.7 to 128 | 0.3 to 0.35 | – | –
